US20250366474A1, “USE OF 4,5-DIMETHYLTHIAZOLE IN PROMOTING PLANT GROWTH” (HUAZHONG AGRICULTURAL UNIVERSITY, priority 2024, published 2025)

Tested on: rice seedlings
Experiment: 4,5-dimethylthiazole root drenching: rice seedling dry matter mass and chlorophyll content
Type: in vivo
Conditions: for Root System Biomass / Shoot Part Biomass / Total Biomass / Total Chlorophyll Content: 30 days of seedling cultivation; for Total Chlorophyll Content: leaves; for Root System Relative Value / Shoot Part Relative Value / Total Chlorophyll Content Relative Value / Total Relative Value: 30 days, vs Control 0 mg/L
Description: Five root irrigation solution concentrations (0, 20, 50, 100 and 200 mg/L) and three types of root drenching frequency (2, 4, and 6 times) were set. 4,5-dimethylthiazole of different mass was dissolved in distilled water to obtain root irrigation solutions at different concentrations. After normal rice seed soaking and accelerated germination, rice substrate soil was loaded 2 cm away from a seedling tray opening, gently compacted, and watered with pure water to be wet. A rice seedling nursery substrate was “rice seedling nursery substrate” purchased from Guangzhou Shengsheng Agriculture Co., Ltd., with main ingredients including peat, vermiculite and yellow mud. Two seeds were sowed in each hole on a substrate surface, covered with the substrate soil again to the seedling tray opening, and watered to be wet. Three days after the rice seedling emergence, the root irrigation solutions at different concentrations was applied once every five days, until there was a water layer of 5 mm on a surface of the substrate. Each treatment was applied with a consistent amount. The drenching was conducted during cooler evening hours to minimize evaporation. After 30 days of seedling cultivation, nine rice samples were taken from each treatment, divided into shoot parts and root system, which were dried and then weighed; and leaves were taken from another nine rice plants to measure chlorophyll content.

[1] = root drenching 2 Times, 20 mg/L
[2] = root drenching 2 Times, 50 mg/L
[3] = root drenching 2 Times, 100 mg/L
[4] = root drenching 2 Times, 200 mg/L
[5] = root drenching 4 Times, 20 mg/L
[6] = root drenching 4 Times, 50 mg/L
[7] = root drenching 4 Times, 100 mg/L
[8] = root drenching 4 Times, 200 mg/L
[9] = root drenching 6 Times, 20 mg/L

Cc1ncsc1C [4,5-dimethylthiazole]
Root System Biomass [1]: 7.5 mg/plant | Shoot Part Biomass [1]: 82.9 mg/plant | Total Biomass [1]: 90.4 mg/plant | Total Chlorophyll Content [1]: 4.77 mg/g | Root System Relative Value [1]: 36.8% | Shoot Part Relative Value [1]: 35.9% | Total Chlorophyll Content Relative Value [1]: 27.8% | Total Relative Value [1]: 36.0% | Root System Biomass [2]: 8.0 mg/plant | Shoot Part Biomass [2]: 79.8 mg/plant | Total Biomass [2]: 87.9 mg/plant | Total Chlorophyll Content [2]: 4.29 mg/g | Root System Relative Value [2]: 46.7% | Shoot Part Relative Value [2]: 30.8% | Total Chlorophyll Content Relative Value [2]: 15.0% | Total Relative Value [2]: 32.1% | Root System Biomass [3]: 8.3 mg/plant | Shoot Part Biomass [3]: 76.3 mg/plant | Total Biomass [3]: 84.6 mg/plant | Total Chlorophyll Content [3]: 3.82 mg/g | Root System Relative Value [3]: 52.2% | Shoot Part Relative Value [3]: 25.0% | Total Chlorophyll Content Relative Value [3]: 2.5% | Total Relative Value [3]: 27.2% | Root System Biomass [4]: 6.3 mg/plant | Shoot Part Biomass [4]: 62.9 mg/plant | Total Biomass [4]: 69.2 mg/plant | Total Chlorophyll Content [4]: 4.51 mg/g | Root System Relative Value [4]: 15.6% | Shoot Part Relative Value [4]: 3.1% | Total Chlorophyll Content Relative Value [4]: 20.8% | Total Relative Value [4]: 4.1% | Root System Biomass [5]: 7.0 mg/plant | Shoot Part Biomass [5]: 74.5 mg/plant | Total Biomass [5]: 81.5 mg/plant | Total Chlorophyll Content [5]: 4.15 mg/g | Root System Relative Value [5]: 27.7% | Shoot Part Relative Value [5]: 22.1% | Total Chlorophyll Content Relative Value [5]: 11.2% | Total Relative Value [5]: 22.6% | Root System Biomass [6]: 8.0 mg/plant | Shoot Part Biomass [6]: 79.9 mg/plant | Total Biomass [6]: 87.9 mg/plant | Total Chlorophyll Content [6]: 4.09 mg/g | Root System Relative Value [6]: 46.3% | Shoot Part Relative Value [6]: 30.9% | Total Chlorophyll Content Relative Value [6]: 9.8% | Total Relative Value [6]: 32.2% | Root System Biomass [7]: 7.7 mg/plant | Shoot Part Biomass [7]: 79.6 mg/plant | Total Biomass [7]: 87.3 mg/plant | Total Chlorophyll Content [7]: 3.82 mg/g | Root System Relative Value [7]: 41.6% | Shoot Part Relative Value [7]: 30.4% | Total Chlorophyll Content Relative Value [7]: 2.3% | Total Relative Value [7]: 31.3% | Root System Biomass [8]: 5.4 mg/plant | Shoot Part Biomass [8]: 70.1 mg/plant | Total Biomass [8]: 75.5 mg/plant | Total Chlorophyll Content [8]: 3.89 mg/g | Root System Relative Value [8]: −0.7% | Shoot Part Relative Value [8]: 14.8% | Total Chlorophyll Content Relative Value [8]: 4.2% | Total Relative Value [8]: 13.6% | Root System Biomass [9]: 8.6 mg/plant | Shoot Part Biomass [9]: 82.7 mg/plant
